# Measured values: US20220016277A1, “MACROCYCLIC COMPLEXES OF RADIONUCLIDES AND THEIR USE IN RADIOTHERAPY OF CANCER” (Cornell University, priority 2018, published 2022)
# Key:
# [1] = Kinetic inertness of ^225Ac complexes: challenge with excess La^3+; type: physicochemical; details: 50-fold excess of La^3+; macropa 0.59 μM; RT; over 7 days
# Description: Kinetic Inertness of ^225Ac Complexes of Macropa and DOTA.
# General. Stock solutions of La(NO3)3 (0.001 M or 0.1 M) were prepared in H2O. To the radiolabeled samples containing macropa (10 μL of 10^−5M stock; 1.0×10^−10 moles) or DOTA (10 μL of 10^_3M stock; 1.0×10^−8 moles) and ^225Ac (10 μL, 26 kBq) in NH4OAc buffer (pH 6, 0.15 M, 150 μL), a 50-fold mole excess of La^3+ was added (5 μL of 0.001 M or 0.1 M stock were added to solutions containing macropa and DOTA, respectively). The solutions were kept at room temperature and analyzed by iTLC at several time points over the course of 8 days. The iTLC plates were developed using citric acid (0.05 M, pH 5) as the eluent. Under these conditions, [^225Ac(macropa)]^+ and [^225Ac(DOTA)]^− remained at the baseline (RF=0) and any unchelated ^225Ac (^225Ac-citrate) migrated with the solvent front (RF=1). Percent of complex remaining intact was calculated by integrating area under the peaks on the radiochromatogram and dividing the counts associated with the ^225Ac-complex (RF=0) by the total counts integrated along the length of the iTLC plate.
# (§1) The long half-life of ^225Ac necessitates its stable complex retention in vivo to avoid off-target damage to normal tissues arising from the release of free ^225Ac^3+. Furthermore, the stability of ^225Ac complexes against transmetalation and transchelation needs to be high. […]
# [2] = Stability of [^225Ac(macropa)]^+ in human serum; type: in vitro ADME
# Description: Transmetalation by La^3+. [^225Ac(macropa)]^+ and [^225Ac(DOTA)] were prepared using 10^−5 M and 10^−3 M stock solutions (10 μL) of macropa and DOTA, respectively, to give final ligand concentrations of 5.9×10^−7 M (macropa) and 5.9×10^−5 M (DOTA). After confirming a radiochemical yield of >90% by TLC using 0.4 M sodium citrate (pH 4) containing 10% MeOH as the mobile phase, 160 μL of human serum (an equal volume based on labeling reaction volume) were added to each radiolabeled solution. A control solution was also prepared in which water was substituted for ligand. The solutions were monitored over the course of 8 days by iTLC. The plates were developed with EDTA (50 mM, pH 5) as the eluent. Under these conditions, [^225Ac(macropa)]^+ and [^225Ac(DOTA)]^− complexes remained at the baseline (RF=0) and any ^225Ac (^225Ac-EDTA) that had been transchelated by serum migrated with the solvent front (RF=1). Percent of complex remaining intact was calculated.
# as §1, with “high. To determine the kinetic inertness, [^225Ac(macropa)]^+ was challenged with La^3+ because of the established high affinity of macropa for this metal ion.” for “high.”
structure (smiles),measurement,setting,value
O=C([O-])c1cccc(CN2CCOCCOCCN(Cc3cccc(C(=O)[O-])n3)CCOCCOCC2)n1.[225Ac+3] [[^225Ac(macropa)]^+],^225Ac complex remaining intact (radio-TLC),[1],98%
same,time ^225Ac^3+ remains complexed in human serum (radio-TLC),[2],at least 8 days
